One assay deals with MDA-MB-468 tumor. The assay is described as follows: Tumor mass of MDA-MB-468 tumor in mice. In kind it is in vivo, mice (BALB/c nu/nu). Particulars: 30 mg/kg/day injected for 7 days, Days 3, 5, 8 relative to Day 1, FIG. 4. As to the method:
MDA-MB-468 cells were cultured in a medium (DMEM-F12 (Sigma) containing 10% FBS (Hyclone)) until cells become 80% confluent in a 225-cm^2 flask. The obtained cultured cells were suspended in 100 μl of DMEM-F12 at about 1×10^7 cells to obtain a MDA-MB-468 cell suspension.
Fat pad of 10-week-old female mice (BALB/c nu/nu) was injected with 100 μl of the MDA-MB-468 cell suspension. After 14 days, the growth of tumor in mice was confirmed. Thus, tumor was allowed to be formed in three mice.
At 14 days after the injection of the MDA-MB-468 cell suspension, an inhibitor solution was injected to the mouse having tumor. Specifically, AG1478 was dissolved in 100 μl of dimethylsulfoxide (DMSO, Sigma) to obtain a inhibitor solution 1. The mouse was injected with the inhibitor solution 1 so that it received the inhibitor at a dose of 30 mg/kg/day. The inhibitor solution 1 was injected for consecutive 7 days. 4557W was dissolved in DMSO to obtain an inhibitor solution 2. […]
On Day 1, the mice were injected with the inhibitor solutions. On Days 1, 3, 5, and 8, the tumor mass (mm^3) in mice was measured. The tumor mass was calculated from the longitudinal and transverse diameters of the tumor measured, assuming that the shape of the tumor is an oval sphere.
The tumor mass of the mouse injected with DMSO was measured in a similar manner. […]

Assay [1] deals with RTKs in cell membrane fraction MDA-MB-468. Put plainly: RTK activity of cell membrane fraction with or without inhibitor (ELISA, Biotin-poly(Glu, Tyr) substrate). In kind it is biochemical. The conditions noted are these: treatment solution containing 100 μM inhibitor, 100 μM ATP, FIG. 1. On the procedure: (§1) Cultured cells (13 types: A-431, KF, MDA-MB-468, RMUG-L, BT-474, ES2, MDA-MB-453, SK-Br-3, SNG-S, K-562, MDA-MB-231, MCF7 and T47D) were respectively mixed with 1 ml of a homogenizing reagent (containing 20 mM HEPES pH7.4, 0.2% protease inhibitors (PI), 10% glycerol, 200 μM Na3VO4 and 50 mM NaF), pressurized with a pestle to break cell membrane and cell homogenate was obtained. The obtained cell homogenate was centrifuged (20,000×g, 20 min.), the supernatant was discarded and the pellet was collected. The collected pellet was added with a solubilizing solution (containing 20 mM HEPES pH7.4, 1% NP40, 0.2% PI, 10% glycerol, 200 μM Na3VO4 and 50 mM NaF), mixed, pressurized with a pestle to solubilize cell membrane and centrifuged (20,000×g, 20 min.). The supernatant was then collected as the cell membrane fraction, adjusted its total protein amount to 40 μg/ml and used for the following experiments.
(§2) The ELISA plate used was the avidin coated plate (NeutrAvidin HBC White 96-Well Plates With SuperBlock Blocking Buffer; PIERCE). Each well of the plate was washed three times with TBS-T (containing 25 mM Tris, 150 mM NaCl and 0.05% Tween-20). A substrate solution 1 (50 μl; TBS containing 1 μg/ml Biotin-poly(Glu, Tyr) substrate) was added to each well and the plate was incubated with gentle shaking at 25° C. for 1.5 hours. After the incubation, each well was washed three times with TBS-T. Thus, Biotin-poly(Glu, Tyr) substrate was bound to the surface of each well of the ELISA plate. This ELISA plate was used for the following enzyme reaction.
(§3) The cell membrane fractions (25 μl each) of the above tumor cells were placed in seven tubes, respectively. To six tubes were added 25 μl of a treatment solution (20 mM HEPES pH7.4, 20 mM MnCl2, 2 mM DTT, 1% NP40, 10% glycerol, 200 μM Na3VO4, 50 mM NaF, 100 μM ATP, 400 μM PPI (BIOMOL)) containing 100 μM PD153035, 25 μl of treatment solution containing 100 μM AG1478, 25 μl of the treatment solution containing 100 μM 4557W, 25 μl of the treatment solution containing 100 μM Src inhibitor, 25 μl of the treatment solution containing 100 μM PDGFR inhibitor and 25 μl of the treatment solution containing 100 μM VEGFR inhibitor, respectively, to contact the cell membrane fractions with RTK activity inhibitors. To the remained tube was added with 25 μl of the treatment solution without inhibitors. The thus obtained solutions are called as reaction solutions. In order to suppress the enzyme activity of RTKs, the above procedures were carried out at below 4° C.
(§4) Each reaction solution (50 μl was distributed to each well of the ELISA plate prepared as above, and the plate was incubated at 25° C. for about 30 minutes to bring the cell membrane fractions having contacted or not with RTK activity inhibitors into contact with the substrate. After the incubation, each well was added with 100 μl of a reaction termination solution (TBS-T containing 5 mM EDTA) and washed three times with TBS-T. Each well was then washed with 300 μl of StartingBlock T20 (TBS) Blocking Buffer (PIERCE). After washing, each well was added with 100 μl of HRP-labeled primary antibody (p-Tyr (PY20), sc-508 HRP (SANTA Cruz Biotechnology), an antibody recognizing a phosphorylated tyrosine residue) diluted to 1000-fold with StartingBlock T20 (TBS) Blocking Buffer, and the plate was incubated with gentle shaking at 25° C. for about 1.5 hours. After the incubation, wells were washed for five times with TBS-T. After washing, each well was added with 150 μl of chemiluminescent substrate (SuperSignal ELISA PICO (PIERCE)), and after 5 min., luminescence was measured with a microplate reader GENios (TECAN) to measure RTK activities. […]
Background: In an ELISA, binding on a coated surface is turned into a signal by an enzyme label.

In the next assay the test system is MDA-MB-468 cells. The assay is described as follows: VEGF secretion ability (Human VEGF Quantikine ELISA). In kind it is cell-based. Particulars: 1 μM inhibitor, 4 hours, FIG. 6. On the procedure:
(§5) The VEGF secretion ability was measured as follows. Cultured cells of MDA-MB-468, BT-474, MCF7 and MDA-MB-231 were seeded in a 6-well plate (Corning) at 1×10^6 cells/well and cultured at 37° C. in a medium (10% FBS). After 24 hours, the medium is changed to a serum free medium and the culture was continued for further 18 hours. The serum free medium used was DMEM/F12 (SIGMA) or RPMI1640 (SIGMA) supplemented with the antibiotics Antibiotic-Antimycotic (100×) (GIBCO). Thereafter, the medium was changed to the medium (10% FBS) containing 1 μM inhibitor in DMSO (PD153035, AG1478, PDGFR inhibitor or VEGFR inhibitor) and the culture was continued for additional 4 hours. The cell supernatant was then collected. The amount of VEGFs in the supernatant was measured with Human VEGF Quantikine ELISA Kit (R&D system) according to the attached protocol.
(§6) The control experiment was carried out with DMSO only instead of the inhibitor.
(§7) In FIG. 6, the y-axis corresponds to VEGF concentration (pg/ml), which reflects the amount of VEGFs secreted from the cells. In FIG. 6, “DMSO”, “PD”, “AG”, “PDGFR” and “VEGFR” represent the results of control, and the cells treated with PD153035, AG1478, PDGFR inhibitor and VEGFR inhibitor, respectively.

The test system of another assay is BT-474 cells. Described as above. Particulars: 1 μM inhibitor, 4 hours, FIG. 6. In kind it is cell-based. As to the method: as §5, §6, §7
Assay [2] concerns RTKs in cell membrane fraction MCF7. Put plainly: RTK activity of cell membrane fraction with or without inhibitor (ELISA, Biotin-poly(Glu, Tyr) substrate). The assay is classed as biochemical. Particulars: treatment solution containing 100 μM inhibitor, 100 μM ATP, FIG. 2. As to the method:
as §1, §2, §3, §4

For assay [3], the system named is RTKs in cell membrane fraction MDA-MB-231. Described as above. The assay is classed as biochemical. The conditions noted are these: treatment solution containing 100 μM inhibitor, 100 μM ATP, FIG. 2. As to the method:
as §1, §2, §3, §4

Assay [4] has as its system RTKs in cell membrane fraction BT-474. The assay is described as above. The conditions noted are these: treatment solution containing 100 μM inhibitor, 100 μM ATP, FIG. 1. In kind it is biochemical. On the procedure: as §1, §2, §3, §4
For a further assay, the system named is tumor cell line (A-431). Particulars: A-431, highest expression level of HER1; Non-Patent Document 1; cited from earlier work.

Each structure is given as a SMILES string.

Here are results for four compounds from US20110027809A1, “METHOD FOR EVALUATION OF DEGREE OF MALIGNANCY OF TUMOR CELL” (priority 2008, published 2011).

Take `COc1cc2ncnc(Nc3ccc(OCc4ccccc4)cc3)c2cc1OC` [4557W]: in the assay with MDA-MB-468 tumor, the “increase in the tumor mass” value is “suppressed”. For the same compound, the “RTK activity in the presence of the inhibitor (relative to control RTK activity)” value in assay [1] was “decreased”.
For the compound `COc1cc2ncnc(Nc3cccc(Cl)c3)c2cc1OC` [AG1478], the “VEGF secretion amount compared to the control value” with MDA-MB-468 cells and in the assay with BT-474 cells was “decreased” each time. The “increase in the tumor mass” value in the assay on MDA-MB-468 tumor was “suppressed”. Besides, the “RTK activity in the presence of the inhibitor (relative to control RTK activity)” value is “not decreased” in assay [2], “not decreased” in assay [3], “decreased” in assay [1] and “decreased” in assay [4].
With `COc1cc2ncnc(Nc3ccc(F)c(Cl)c3)c2cc1OCCCN1CCOCC1` [Iressa, gefitinib], the “proliferation of the tumor cell line” value in the assay on tumor cell line (A-431) is listed as “suppressed at the highest degree”.
On to `COc1cc2ncnc(Nc3cccc(Br)c3)c2cc1OC` [PD153035], for which the “VEGF secretion amount compared to the control value” in the assay with MDA-MB-468 cells and in the assay on BT-474 cells was “decreased” in each case. In addition, the “RTK activity in the presence of the inhibitor (relative to control RTK activity)” value is on record as “not decreased” in assay [2], “not decreased” in assay [3], “decreased” in assay [1] and “decreased” in assay [4].
